The values that follow come from paper PMC10401570, “Programmable Monodisperse Glyco-Multivalency Using Self-Assembled Coordination Cages as Scaffolds” (ACS Applied Materials & Interfaces, 2023).

The structures appear in SMILES notation.

For the test, the target named is Jacalin (Artocarpus integer, UniProt P18670). Put plainly: competition turbidimetry: free galactose blocks lectin aggregation by galactose cage Co4Gal ([…] against Co8Gal). Type of test: binding.
Chain of Jacalin (P18670 whole entry): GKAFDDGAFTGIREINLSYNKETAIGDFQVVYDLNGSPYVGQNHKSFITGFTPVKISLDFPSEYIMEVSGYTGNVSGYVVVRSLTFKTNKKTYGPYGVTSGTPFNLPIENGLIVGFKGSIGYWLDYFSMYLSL
Chain of Jacalin (P18671 whole entry partner): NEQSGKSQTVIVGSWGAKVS

Regarding `OC[C@H]1OC(O)[C@H](O)[C@@H](O)[C@H]1O` (stereo partly drawn) [D-galactose], the IC50 (commonly the point on the concentration scale where inhibition reaches its midpoint) was determined as 30 mM.
